Test results reported in US6071905A, “Biologically active substance on the basis of tetracyclic nitrogen heterocycles of pyrimidine row” (Natural Drug Sciences, LLC, priority 1998, dated 2000).
Converted amounts (≈) assume the structure as drawn.

Assays:
M. smegmatis ATCC607 = test: series culture (dilution) method, MIC, M. smegmatis ATCC607; assay type: cell-based, Mycobacterium smegmatis; settings: Mycolicibacterium smegmatis, 72 hour cultivation, 37° C., medium N-1
M. bovis bovinus 8 = assay type: in vivo, M. bovis bovinus 8; no-breed male mice; settings: for Coefficient of lung mass / Index of damage lungs / Perished animals: 42 day after infection; for Coefficient of lung mass / Index of damage lungs / Seeding M.tub.: dose not given; for Perished animals: tested compounds orally (10, 20 and 30 mg/kg), streptomycin intramuscularly; for Seeding M.tub.: from spleen, CFU per 100 mg
M. tuberculosis H37Rv = test: series culture (dilution) method, MIC, M. tuberculosis H37Rv; assay type: cell-based; settings: Mycobacterium tuberculosis, 72 hour cultivation, 37° C., Soton medium with 10% horse serum
Description: In order to determine antimicrobial activity standard strains Mycobacterium smegmatis ATCC607 and Mycobacterium tuberculosis H37RV were used which are sensitive to all antimicrobial compounds.
The evaluation of antimicrobial action was performed with the method of series culture (5). M. smegmatis ATCC607 for seeding was grown on liquid synthetic medium N-1.
The compounds were dissolved in dimethyl sulfoxide (DMSO) and tittered in medium N-1, so that this compound was contained in separate test tubes with the medium in concentration of 200-0.025 mg/l. The concentration of the compound in the medium of neighboring test tubes was differed twice. For the control, DMSO which was tittered the same as the compound, was utilized. Test strain of bacteria was added in the quantity 1-2×10^6 ml. The result was considered after 72 hour cultivation of test tubes at 37° C.
For M tuberculosis H37Rv conditions of experiment were identical, with the exception of the fact that bacteria were grown on the Soton medium which contains 10% horse serum, and density of microbial suspension during seeding was (5.0×10^6) in ml.
As the control, in both cases known tuberculostatic compounds were utilized.

in vivo = settings: mouse
[1] = tested on: primary culture of human lymphocytes; test: interferon-inducing activity in primary culture of human lymphocytes (immuno-ferment assay); assay type: cell-based; settings: 24 hours of incubation
[2] = tested on: herpes virus I of the type (VPG-1/Leningrad/248/88); test: antiviral action on herpes virus in Vero cells (cytopathogenic action); assay type: cell-based; settings: 36 hours, 38° C.
C. trachomatis D323 = test: action on Chlamydia trachomatis in cell culture (McCoy and L929); assay type: cell-based; settings: 48 hours
M. avium 84 = test: action on pathogenic mycobacteria from patients, Lowenstein-Jensen medium, M. avium 84; assay type: cell-based, Mycobacterium avium; settings: title: concentration of compound 10.0 g/l; 30 days
Vero = test: control of compounds (toxicity) on Vero cell culture; assay type: cell-based

For `O=c1c2cc(Cl)cc(Cl)c2oc2nc3n(c(=O)c12)CCCS3` [R1=R2=Cl, 1,3-dichloro-5-oxo-5H-[1]-benzopyrano-[5,6-b]-4-oxo-4H-[1,2]-pyrimido-1,4,5,6-tetrahydro-1,3-thiazine], the MIC (M. smegmatis ATCC607) was 1 µg/mL (≈ 2.82 µM), the “Coefficient of lung mass” value (M. bovis bovinus 8) was 2.42 con. units and the “Index of damage lungs” value (M. bovis bovinus 8) was 2.5 con. unit. The Perished animals (M. bovis bovinus 8) was 0%, the “Seeding M.tub.” value (M. bovis bovinus 8) was 195 CFU and the MIC (M. tuberculosis H37Rv) was 0.3 µg/mL (≈ 0.845 µM). For the same molecule, the LD50 at 336 h (in vivo) was over 1500 mg/kg.
With `O=c1c2cc(Br)cc(Br)c2oc2nc3n(c(=O)c12)CCCS3` [R1=R2=Br, 1,3-dibromo-5-oxo-5H-[1]-benzopyrano-[5,6-b]-4-oxo-4H-[1,2]-pyrimido-1,4,5,6-tetrahydro-1,3-thiazine] the “Content of IFN in induction mixture” value ([1]; 1 μg/ml) was 4.0 ± 0.5 ME/3*10^4 limph./ml, the “Content of IFN in induction mixture” value ([1]; 10 μg/ml) was 23 ± 1.0 ME/3*10^4 limph./ml and the “Content of IFN in induction mixture” value ([1]; 100 μg/ml) was 47 ± 0.8 ME/3*10^4 limph./ml. The MIC (M. smegmatis ATCC607) was 0.1 µg/mL (≈ 0.225 µM), the “Coefficient of lung mass” value (M. bovis bovinus 8) was 2.30 con. units and the “Index of damage lungs” value (M. bovis bovinus 8) was 2.3 con. unit. The Perished animals (M. bovis bovinus 8) was 0%, the “Seeding M.tub.” value (M. bovis bovinus 8) was 180 CFU and the MIC (M. tuberculosis H37Rv) was 0.1 µg/mL (≈ 0.225 µM). The LD50 at 336 h (in vivo) was over 1500 mg/kg.
With `COc1ccc2oc3nc4n(c(=O)c3c(=O)c2c1)CCCS4` [R1=H, R2=OCH3, 3-methoxy-5-oxo-5H-[1]-benzopyrano-[5,6-b]-4-oxo-4H-[1, 2]-pyrimido-1,4,5,6-tetrahydro-1,3-thiazine] the MIC (M. smegmatis ATCC607) was 100 µg/mL (≈ 316 µM) and the MIC (M. tuberculosis H37Rv) was 50 µg/mL (≈ 158 µM).
For `O=c1c2cc([N+](=O)[O-])cc(Br)c2oc2nc3n(c(=O)c12)CCCS3` [R1=Br, R2-NO2, 1-bromo-3-nitro-5-oxo-5H-[1]-benzopyrano-[5,6-b]-4-oxo-4H-[1,2]-pyrimido-1,4,5,6-tetrahydro-1,3-thiazine], the MIC (M. smegmatis ATCC607) was 100 µg/mL (≈ 244 µM) and the MIC (M. tuberculosis H37Rv) was 25 µg/mL (≈ 60.9 µM).
For `O=c1c2cc([N+](=O)[O-])cc(Cl)c2oc2nc3n(c(=O)c12)CCCS3` [R1=Cl, R2=NO2, 1-chloro-3-nitro-5-oxo-5H-[1]-benzopyrano-[5,6-b]-4-oxo-4H-[1,2]-pyrimido-1,4,5,6-tetrahydro-1,3-thiazine], the “Content of IFN in induction mixture” value ([1]; 1 μg/ml) was 3.6 ± 0.5 ME/3*10^4 limph./ml, the “Content of IFN in induction mixture” value ([1]; 10 μg/ml) was 18 ± 1.6 ME/3*10^4 limph./ml and the MIC (M. smegmatis ATCC607) was 100 µg/mL (≈ 273 µM). The MIC (M. tuberculosis H37Rv) was 50 µg/mL (≈ 137 µM).
With `Nc1nc2c(ncn2COCCO)c(=O)[nH]1` [Acyclovir, reference compound] the “number of unchanged cells in 100 fields” value ([2]; 10 mg/l) was 8000.
With `O=c1c2cc(Br)ccc2oc2nc3n(c(=O)c12)CCCS3` [R1=H, R2=Br, 3-bromo-5-oxo-5H-[1]-benzopyrano-[5,6-b]-4-oxo-4H-[1,2]-pyrimido-1,4,5,6-tetrahydro-1,3-thiazine] the “Content of IFN in induction mixture” value ([1]; 1 μg/ml) was 14 ± 0.5 ME/3*10^4 limph./ml, the “Content of IFN in induction mixture” value ([1]; 10 μg/ml) was 84 ± 2.5 ME/3*10^4 limph./ml and the “Content of IFN in induction mixture” value ([1]; 100 μg/ml) was 192 ± 1.6 ME/3*10^4 limph./ml. For the same molecule, the MIC (M. smegmatis ATCC607) was 50 µg/mL (≈ 137 µM), the “Number of unchanged cells” value (C. trachomatis D323; 100 mg/l) was 7.000 and the MIC (M. tuberculosis H37Rv) was 25 µg/mL (≈ 68.5 µM).
In the case of `NNC(=O)c1ccncc1` [Isoniazid, hydrazide of izonicotinic acid, reference compound], the MIC (M. smegmatis ATCC607) is reported as 1.5 µg/mL (≈ 10.9 µM), the MIC (M. tuberculosis H37Rv) is reported as 0.1 µg/mL (≈ 0.729 µM) and the “antimicrobial action, M. avium 84” value (M. avium 84) is reported as “growth”.
With `O=c1c2cc([N+](=O)[O-])ccc2oc2nc3n(c(=O)c12)CCCS3` [R1=H, R2=NO2, 3-nitro-5-oxo-5H-[1]-benzopyrano-[5,6-b]-4-oxo-4H-[1,2]-pyrimido-1,4,5,6-tetrahydro-1,3-thiazine] the “Content of IFN in induction mixture” value ([1]; 1 μg/ml) was 4.2 ± 0.8 ME/3*10^4 limph./ml, the “Content of IFN in induction mixture” value ([1]; 10 μg/ml) was 20 ± 1.2 ME/3*10^4 limph./ml and the “Content of IFN in induction mixture” value ([1]; 100 μg/ml) was 48 ± 1.2 ME/3*10^4 limph./ml. For the same molecule, the MIC (M. smegmatis ATCC607) was 100 µg/mL (≈ 302 µM), the MIC (M. tuberculosis H37Rv) was 50 µg/mL (≈ 151 µM) and the “number of unchanged cells in 100 fields” value ([2]; 10 mg/l) was 6000. The “toxicity of compounds to cells” value (Vero; 50 mg/l) was “toxic” and the “toxicity of compounds to cells” value (Vero; 100 mg/l) was “toxic”.
`CC1COc2c(N3CCN(C)CC3)c(F)cc3c(=O)c(C(=O)O)cn1c23` (centres unmarked) [Ofloxacin, reference compound] gave an MIC (M. smegmatis ATCC607) of 0.5 µg/mL (≈ 1.38 µM) and an MIC (M. tuberculosis H37Rv) of 0.5 µg/mL (≈ 1.38 µM).
In the case of `O=c1c2ccccc2oc2nc3n(c(=O)c12)CCCS3` [R1=R2=H, 5-oxo-5H-[1]-benzopyrano-[5,6-b]-4-oxo-4H-[1,2]-pyrimido-1,4,5,6-tetrahydro-1,3-thiazine], the MIC (M. smegmatis ATCC607) is reported as 0.3 µg/mL (≈ 1.05 µM), the “Number of unchanged cells” value (C. trachomatis D323; 10 mg/l) is reported as 7.200 and the MIC (M. tuberculosis H37Rv) is reported as 0.6 µg/mL (≈ 2.1 µM). For the same molecule, the LD50 at 336 h (in vivo) was over 1500 mg/kg, the “number of unchanged cells in 100 fields” value ([2]; 10 mg/l) was 3000 and the “number of unchanged cells in 100 fields” value ([2]; 50 mg/l) was 6000. For the same molecule, the “toxicity of compounds to cells” value (Vero; 100 mg/l) was “toxic”.
Molecule `O=c1c2cc(Cl)ccc2oc2nc3n(c(=O)c12)CCCS3` [R1=H, R2=Cl, 3-chloro-5-oxo-5H-[1]-benzopyrano-[5,6-b]-4-oxo-4H-[1,2]-pyrimido-1,4,5,6-tetrahydro-1,3-thiazine] has an MIC (M. smegmatis ATCC607) of 10 µg/mL (≈ 31.2 µM) and an MIC (M. tuberculosis H37Rv) of 10 µg/mL (≈ 31.2 µM).
`CC[C@@H](CO)NCCN[C@@H](CC)CO` [Ethambutol, reference compound] gave an MIC (M. smegmatis ATCC607) of 5 µg/mL (≈ 24.5 µM) and an MIC (M. tuberculosis H37Rv) of 5 µg/mL (≈ 24.5 µM).
For `[H]/N=C(/N)N[C@H]1[C@H](O)[C@@H](O)[C@H](O[C@@H]2O[C@@H](C)[C@](O)(C=O)[C@H]2O[C@@H]2O[C@@H](CO)[C@H](O)[C@@H](O)[C@@H]2NC)[C@@H](N/C(N)=N\[H])[C@@H]1O` [Streptomycin, reference compound], the MIC (M. smegmatis ATCC607) was 0.15 µg/mL (≈ 0.258 µM), the “Coefficient of lung mass” value (M. bovis bovinus 8) was 2.47 con. units and the “Index of damage lungs” value (M. bovis bovinus 8) was 2.45 con. unit. The Perished animals (M. bovis bovinus 8) was 0%, the “Seeding M.tub.” value (M. bovis bovinus 8) was 200 CFU and the MIC (M. tuberculosis H37Rv) was 0.2 µg/mL (≈ 0.344 µM). For the same molecule, the “antimicrobial action, M. avium 84” value (M. avium 84) was “growth”.
For `CO[C@H]1/C=C/O[C@@]2(C)Oc3c(C)c(O)c4c(O)c(cc(O)c4c3C2=O)NC(=O)/C(C)=C\C=C\[C@H](C)[C@H](O)[C@@H](C)[C@@H](O)[C@@H](C)[C@H](OC(C)=O)[C@@H]1C` [Rifamycin, reference compound], the MIC (M. smegmatis ATCC607) was 0.25 µg/mL (≈ 0.358 µM), the MIC (M. tuberculosis H37Rv) was 0.05 µg/mL (≈ 0.0717 µM) and the “antimicrobial action, M. avium 84” value (M. avium 84) was “growth”.
For `O=c1c2cc(O)ccc2oc2nc3n(c(=O)c12)CCCS3` [R1=H, R2=OH, 3-hydroxy-5-oxo-5H-[1]-benzopyrano-[5,6-b]-4-oxo-4H-[1,2]-pyrimido-1,4,5,6-tetrahydro-1,3-thiazine], the MIC (M. smegmatis ATCC607) was 100 µg/mL (≈ 331 µM) and the MIC (M. tuberculosis H37Rv) was 50 µg/mL (≈ 165 µM).
